Test results: ChEMBL document CHEMBL4507291 (2021)

Experiments:
[1] = molecular target: Cholecystokinin receptor type A (Homo sapiens) (UniProt P32238); experiment: Inhibition of Cholecystokinin CCK1 (CCKA) at 10 µM in the Eurofins-Panlabs radioligand binding assay (Eurofins_assay_218020); details: Compound concentration 10.0 uM
[2] = molecular target: Casein kinase I isoform gamma-1 (Homo sapiens) (UniProt Q9HCP0); experiment: CSNK1G1 (CK1 gamma 1) Kinase screen; details: Compound concentration 1.0 uM
Casein kinase I isoform gamma-1 (Homo sapiens), sequence (Q9HCP0 whole entry, looked up, canonical isoform): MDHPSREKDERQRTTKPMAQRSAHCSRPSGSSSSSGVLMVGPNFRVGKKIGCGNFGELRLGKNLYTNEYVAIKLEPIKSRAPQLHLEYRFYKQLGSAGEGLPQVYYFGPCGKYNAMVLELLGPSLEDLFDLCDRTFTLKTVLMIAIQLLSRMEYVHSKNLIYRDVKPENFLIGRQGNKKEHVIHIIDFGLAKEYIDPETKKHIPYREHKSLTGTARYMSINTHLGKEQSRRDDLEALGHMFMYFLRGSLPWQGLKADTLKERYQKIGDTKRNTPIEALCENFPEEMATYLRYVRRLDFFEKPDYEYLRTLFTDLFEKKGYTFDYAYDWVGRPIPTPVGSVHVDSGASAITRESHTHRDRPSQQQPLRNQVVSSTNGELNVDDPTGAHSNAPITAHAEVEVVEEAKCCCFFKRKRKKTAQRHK

[3] = molecular target: T1, Dual specificity mitogen-activated protein kinase kinase 3 (Homo sapiens) (UniProt P46734); experiment: MAP2K3 (MEK3) Kinase screen; details: Compound concentration 1.0 uM
T1 sequence (whole entry): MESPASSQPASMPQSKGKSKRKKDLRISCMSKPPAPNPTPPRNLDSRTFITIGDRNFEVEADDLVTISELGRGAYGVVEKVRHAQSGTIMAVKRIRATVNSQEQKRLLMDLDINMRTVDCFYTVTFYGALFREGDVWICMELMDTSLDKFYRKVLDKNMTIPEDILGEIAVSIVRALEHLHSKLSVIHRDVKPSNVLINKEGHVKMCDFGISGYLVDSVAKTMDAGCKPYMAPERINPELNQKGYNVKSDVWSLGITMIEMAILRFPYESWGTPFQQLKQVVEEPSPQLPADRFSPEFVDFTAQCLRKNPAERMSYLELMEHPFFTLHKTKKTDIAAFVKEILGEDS

[4] = molecular target: T2, Mitogen-activated protein kinase kinase kinase kinase 2 (Homo sapiens) (UniProt Q12851); experiment: MAP4K2 (GCK) Kinase screen; details: Compound concentration 1.0 uM
T2 sequence (whole entry): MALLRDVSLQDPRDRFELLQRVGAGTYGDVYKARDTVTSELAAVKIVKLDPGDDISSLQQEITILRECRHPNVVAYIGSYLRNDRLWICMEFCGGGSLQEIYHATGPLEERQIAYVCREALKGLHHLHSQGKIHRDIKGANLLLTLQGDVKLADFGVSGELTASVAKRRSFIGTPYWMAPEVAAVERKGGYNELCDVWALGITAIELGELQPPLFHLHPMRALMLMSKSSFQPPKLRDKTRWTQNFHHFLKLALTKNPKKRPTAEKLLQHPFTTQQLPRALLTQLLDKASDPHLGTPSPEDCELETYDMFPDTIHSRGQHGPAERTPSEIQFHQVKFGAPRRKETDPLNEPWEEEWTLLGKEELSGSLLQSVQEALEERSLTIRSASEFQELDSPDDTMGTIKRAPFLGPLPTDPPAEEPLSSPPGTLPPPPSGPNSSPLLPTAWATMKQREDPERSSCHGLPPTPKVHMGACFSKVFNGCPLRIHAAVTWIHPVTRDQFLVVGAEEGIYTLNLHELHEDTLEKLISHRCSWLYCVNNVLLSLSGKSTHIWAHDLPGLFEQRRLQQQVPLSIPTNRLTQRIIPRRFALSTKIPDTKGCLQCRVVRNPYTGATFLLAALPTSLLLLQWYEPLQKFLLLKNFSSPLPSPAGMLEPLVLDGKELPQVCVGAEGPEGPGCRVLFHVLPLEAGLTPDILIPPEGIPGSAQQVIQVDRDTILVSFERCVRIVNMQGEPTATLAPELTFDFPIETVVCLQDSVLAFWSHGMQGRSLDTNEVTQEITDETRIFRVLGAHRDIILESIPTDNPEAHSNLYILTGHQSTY

[5] = species: Rattus norvegicus; details: Compound concentration 10.0 uM
[6] = molecular target: T3, 5-hydroxytryptamine receptor 3A (Homo sapiens) (UniProt P46098); experiment: Inhibition of Serotonin (5-Hydroxytryptamine) 5-HT3 at 10 µM in the Eurofins-Panlabs radioligand binding assay (Eurofins_assay_271910); design: ligand concentration 0.69 nM; details: Compound concentration 10.0 uM
T3 sequence (whole entry): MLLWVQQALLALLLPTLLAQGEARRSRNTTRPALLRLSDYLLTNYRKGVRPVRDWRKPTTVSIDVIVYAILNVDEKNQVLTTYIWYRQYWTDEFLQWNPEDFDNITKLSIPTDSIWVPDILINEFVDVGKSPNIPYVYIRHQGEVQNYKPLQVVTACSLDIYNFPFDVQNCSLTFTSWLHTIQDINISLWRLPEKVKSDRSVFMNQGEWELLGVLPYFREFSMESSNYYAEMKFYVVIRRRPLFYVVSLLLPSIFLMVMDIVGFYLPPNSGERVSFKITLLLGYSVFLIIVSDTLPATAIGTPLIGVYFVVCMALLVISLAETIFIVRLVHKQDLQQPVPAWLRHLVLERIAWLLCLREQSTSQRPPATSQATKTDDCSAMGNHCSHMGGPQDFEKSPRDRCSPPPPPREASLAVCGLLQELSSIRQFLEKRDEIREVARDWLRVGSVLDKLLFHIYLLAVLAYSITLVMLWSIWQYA

[7] = molecular target: T4, Alpha-2C adrenergic receptor (Homo sapiens) (UniProt P18825); experiment: Adrenergic alpha2C Eurofins-Panlabs radioligand binding assay; design: ligand concentration 1 nM, non-specific ligand with concentration 10 µM WB-4101, incubation time 60 min, incubation temperature 25 °C; details: Compound concentration 10.0 uM
T4 sequence (whole entry): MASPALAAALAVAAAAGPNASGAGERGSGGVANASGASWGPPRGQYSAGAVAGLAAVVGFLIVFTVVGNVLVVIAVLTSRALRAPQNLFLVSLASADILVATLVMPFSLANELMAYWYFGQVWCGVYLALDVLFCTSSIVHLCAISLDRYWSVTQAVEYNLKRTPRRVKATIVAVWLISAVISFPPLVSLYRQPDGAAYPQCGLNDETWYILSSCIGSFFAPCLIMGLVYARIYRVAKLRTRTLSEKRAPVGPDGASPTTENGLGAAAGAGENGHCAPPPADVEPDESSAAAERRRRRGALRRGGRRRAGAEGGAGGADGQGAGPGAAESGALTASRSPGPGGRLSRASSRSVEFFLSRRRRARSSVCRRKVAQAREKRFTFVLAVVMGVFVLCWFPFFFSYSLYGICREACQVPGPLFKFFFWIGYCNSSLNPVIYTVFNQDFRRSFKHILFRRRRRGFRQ

[8] = tested on: Dual specificity mitogen-activated protein kinase kinase 6 (Homo sapiens), P52564 [S207E,T211E]; experiment: MAP2K6 (MKK6) S207E T211E Kinase screen; details: Compound concentration 1.0 uM
Dual specificity mitogen-activated protein kinase kinase 6 (Homo sapiens), P52564 [S207E,T211E], sequence (P52564 whole entry S207E/T211E): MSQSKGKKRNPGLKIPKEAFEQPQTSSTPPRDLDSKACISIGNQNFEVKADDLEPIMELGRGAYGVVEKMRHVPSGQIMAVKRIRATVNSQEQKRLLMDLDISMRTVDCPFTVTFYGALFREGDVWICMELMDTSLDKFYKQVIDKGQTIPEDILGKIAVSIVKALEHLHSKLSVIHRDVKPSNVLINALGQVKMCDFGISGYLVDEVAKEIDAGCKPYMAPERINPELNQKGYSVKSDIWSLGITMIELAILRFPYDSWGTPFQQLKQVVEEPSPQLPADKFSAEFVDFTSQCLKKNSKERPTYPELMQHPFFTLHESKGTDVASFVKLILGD

[9] = molecular target: G protein-coupled receptor kinase 6 (Homo sapiens) (UniProt P43250); experiment: GRK6 Kinase screen; details: Compound concentration 1.0 uM
G protein-coupled receptor kinase 6 (Homo sapiens), sequence (P43250 whole entry, looked up): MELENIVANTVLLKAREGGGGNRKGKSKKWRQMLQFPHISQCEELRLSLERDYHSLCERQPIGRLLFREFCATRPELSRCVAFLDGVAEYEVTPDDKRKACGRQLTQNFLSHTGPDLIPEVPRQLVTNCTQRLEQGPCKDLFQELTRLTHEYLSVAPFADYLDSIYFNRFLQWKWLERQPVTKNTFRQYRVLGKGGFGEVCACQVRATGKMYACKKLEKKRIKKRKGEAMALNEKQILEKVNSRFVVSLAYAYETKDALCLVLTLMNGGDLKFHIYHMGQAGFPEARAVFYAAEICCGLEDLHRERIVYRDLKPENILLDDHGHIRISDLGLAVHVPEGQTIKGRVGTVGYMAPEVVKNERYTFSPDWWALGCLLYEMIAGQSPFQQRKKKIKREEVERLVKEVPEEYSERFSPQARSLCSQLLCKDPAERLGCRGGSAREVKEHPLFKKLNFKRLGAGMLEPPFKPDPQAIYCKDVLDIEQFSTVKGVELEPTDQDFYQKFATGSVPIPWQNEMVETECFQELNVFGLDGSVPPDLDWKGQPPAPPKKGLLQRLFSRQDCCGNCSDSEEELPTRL

Measured: inhibition

Cholecystokinin receptor type A (Homo sapiens), sequence (P32238 whole entry, canonical isoform): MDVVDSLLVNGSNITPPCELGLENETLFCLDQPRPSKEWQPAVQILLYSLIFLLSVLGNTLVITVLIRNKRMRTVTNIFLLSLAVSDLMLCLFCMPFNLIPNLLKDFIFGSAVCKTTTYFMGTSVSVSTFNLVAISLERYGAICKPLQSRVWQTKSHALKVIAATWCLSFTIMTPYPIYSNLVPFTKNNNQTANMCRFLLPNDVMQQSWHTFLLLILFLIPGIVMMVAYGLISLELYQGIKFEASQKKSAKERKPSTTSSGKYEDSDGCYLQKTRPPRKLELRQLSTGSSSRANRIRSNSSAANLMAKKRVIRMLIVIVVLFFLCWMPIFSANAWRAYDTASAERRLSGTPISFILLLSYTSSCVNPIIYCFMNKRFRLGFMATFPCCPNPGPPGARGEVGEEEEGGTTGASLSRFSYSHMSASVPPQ

C[C@@H]1CN(c2cc(-c3n[nH]c4ccc(OC5(C)CC5)cc34)ncn2)C[C@H](C)O1 [MLi-2]
inactive: [1] -4% | [2] -1.82% | [3] -2.3% | [4] 30.9% | [5] 0% | [6] -9% | [7] 14% | [8] -1.97% | [9] 6.63%
